Here are results for five compounds from patent US11981658B2, “Substituted aminopyridine compounds as EGFR inhibitors” (YUHAN CORPORATION, priority 2021, dated 2024).

Read-outs that look alike come from different tables or passages of the source.

One test has as its target EGFR wildtype (WT) (Homo sapiens, UniProt P00533). The test is described as follows: Biochemical EGFR kinase inhibition assay (Lance Ultra TR-FRET), wildtype. The gist of the method:
(§1)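 Kinase activity is measured by TR-FRET phosphopeptide detection. Compounds span 0.003 μM to 10 μM; the 1 h reaction at room temperature is quenched with EDTA, then labelled antibody (2 nM) is incubated 60 min before reading.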
On the technique in general: In TR-FRET formats the signal depends on donor and acceptor labels being close together.

For the next test, the target named is EGFR L858R/T790M/C797S (Homo sapiens, UniProt P00533, C797S/L858R/T790M). The test is described as follows: Biochemical EGFR kinase inhibition assay (Lance Ultra TR-FRET), triple mutant L858R/T790M/C797S. The gist of the method: as §1
The next test deals with EGFR Del19/T790M/C797S (Homo sapiens, UniProt P00533, C797S/DEL746-750/T790M). The test is described as follows: Biochemical EGFR kinase inhibition assay (Lance Ultra TR-FRET), triple mutant del19/T790M/C797S. Put shortly: as §1
Another test concerns the target EGFR L858R/C797S (Homo sapiens, UniProt P00533, C797S/L858R). The test is described as follows: Biochemical EGFR kinase inhibition assay (Lance Ultra TR-FRET), double mutant L858R/C797S. The gist of the method:
as §1

Another test has as its target EGFR Del19/C797S (Homo sapiens, UniProt P00533, C797S/DEL746-750). The test is described as follows: Biochemical EGFR kinase inhibition assay (Lance Ultra TR-FRET), double mutant del19/C797S. Put shortly: as §1
[1] abbreviates: IC50 L858R/T790M/C797S (nM), 100 μM ATP.
[2] abbreviates: IC50 Del19/T790M/C797S (nM), 100 μM ATP.
The mark [3] stands for this setting: IC50 L858R/C797S (nM), 100 μM ATP.
[4] abbreviates: IC50 Del19/C797S (nM), 100 μM ATP.
Where [5] appears, read: ATP at Km, read-out: IC50 WT (nM), Km ATP.
[6] abbreviates: ATP at Km, read-out: IC50 L858R/T790M/C797S (nM), Km ATP.
The mark [7] stands for this setting: ATP at Km, read-out: IC50 Del19/T790M/C797S (nM), Km ATP.
Setting [8] is: ATP at Km, read-out: IC50 L858R/C797S (nM), Km ATP.
The mark [9] stands for this setting: ATP at Km, read-out: IC50 Del19/C797S (nM), Km ATP.

Chain of EGFR L858R/C797S (P00533 25-1210 C797S/L858R): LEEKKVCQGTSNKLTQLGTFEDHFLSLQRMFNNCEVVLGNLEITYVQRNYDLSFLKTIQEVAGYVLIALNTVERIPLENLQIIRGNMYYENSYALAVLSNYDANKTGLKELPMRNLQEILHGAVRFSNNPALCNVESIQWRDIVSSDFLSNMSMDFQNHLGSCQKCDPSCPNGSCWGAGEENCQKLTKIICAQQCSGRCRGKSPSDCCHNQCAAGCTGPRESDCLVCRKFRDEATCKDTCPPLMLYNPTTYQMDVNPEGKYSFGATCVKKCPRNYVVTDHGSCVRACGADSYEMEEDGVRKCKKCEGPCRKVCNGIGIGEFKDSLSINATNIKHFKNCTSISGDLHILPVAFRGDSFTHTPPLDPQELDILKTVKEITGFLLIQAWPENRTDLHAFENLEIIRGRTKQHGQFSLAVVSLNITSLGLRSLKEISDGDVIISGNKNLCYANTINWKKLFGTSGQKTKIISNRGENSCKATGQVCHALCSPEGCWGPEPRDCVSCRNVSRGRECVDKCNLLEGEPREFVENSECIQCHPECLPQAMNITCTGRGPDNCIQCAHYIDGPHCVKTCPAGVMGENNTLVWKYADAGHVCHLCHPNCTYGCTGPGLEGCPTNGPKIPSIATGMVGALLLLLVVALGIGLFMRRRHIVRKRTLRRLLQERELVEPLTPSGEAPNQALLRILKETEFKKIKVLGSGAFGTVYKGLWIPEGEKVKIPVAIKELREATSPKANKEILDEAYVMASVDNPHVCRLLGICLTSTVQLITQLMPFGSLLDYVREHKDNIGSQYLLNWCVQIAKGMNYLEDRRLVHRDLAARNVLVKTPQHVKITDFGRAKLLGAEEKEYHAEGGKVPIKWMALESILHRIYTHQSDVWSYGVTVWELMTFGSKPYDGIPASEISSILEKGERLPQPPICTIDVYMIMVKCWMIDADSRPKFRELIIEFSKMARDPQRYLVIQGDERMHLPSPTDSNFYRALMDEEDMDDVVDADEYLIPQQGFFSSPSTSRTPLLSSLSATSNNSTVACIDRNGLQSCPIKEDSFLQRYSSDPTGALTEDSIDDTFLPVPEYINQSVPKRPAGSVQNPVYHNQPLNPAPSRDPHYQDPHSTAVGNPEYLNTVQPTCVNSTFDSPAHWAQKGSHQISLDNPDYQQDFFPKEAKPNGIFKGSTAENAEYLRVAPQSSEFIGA
Chain of EGFR Del19/T790M/C797S (P00533 with tags, fused parts or gaps DEL746-750/T790M/C797S): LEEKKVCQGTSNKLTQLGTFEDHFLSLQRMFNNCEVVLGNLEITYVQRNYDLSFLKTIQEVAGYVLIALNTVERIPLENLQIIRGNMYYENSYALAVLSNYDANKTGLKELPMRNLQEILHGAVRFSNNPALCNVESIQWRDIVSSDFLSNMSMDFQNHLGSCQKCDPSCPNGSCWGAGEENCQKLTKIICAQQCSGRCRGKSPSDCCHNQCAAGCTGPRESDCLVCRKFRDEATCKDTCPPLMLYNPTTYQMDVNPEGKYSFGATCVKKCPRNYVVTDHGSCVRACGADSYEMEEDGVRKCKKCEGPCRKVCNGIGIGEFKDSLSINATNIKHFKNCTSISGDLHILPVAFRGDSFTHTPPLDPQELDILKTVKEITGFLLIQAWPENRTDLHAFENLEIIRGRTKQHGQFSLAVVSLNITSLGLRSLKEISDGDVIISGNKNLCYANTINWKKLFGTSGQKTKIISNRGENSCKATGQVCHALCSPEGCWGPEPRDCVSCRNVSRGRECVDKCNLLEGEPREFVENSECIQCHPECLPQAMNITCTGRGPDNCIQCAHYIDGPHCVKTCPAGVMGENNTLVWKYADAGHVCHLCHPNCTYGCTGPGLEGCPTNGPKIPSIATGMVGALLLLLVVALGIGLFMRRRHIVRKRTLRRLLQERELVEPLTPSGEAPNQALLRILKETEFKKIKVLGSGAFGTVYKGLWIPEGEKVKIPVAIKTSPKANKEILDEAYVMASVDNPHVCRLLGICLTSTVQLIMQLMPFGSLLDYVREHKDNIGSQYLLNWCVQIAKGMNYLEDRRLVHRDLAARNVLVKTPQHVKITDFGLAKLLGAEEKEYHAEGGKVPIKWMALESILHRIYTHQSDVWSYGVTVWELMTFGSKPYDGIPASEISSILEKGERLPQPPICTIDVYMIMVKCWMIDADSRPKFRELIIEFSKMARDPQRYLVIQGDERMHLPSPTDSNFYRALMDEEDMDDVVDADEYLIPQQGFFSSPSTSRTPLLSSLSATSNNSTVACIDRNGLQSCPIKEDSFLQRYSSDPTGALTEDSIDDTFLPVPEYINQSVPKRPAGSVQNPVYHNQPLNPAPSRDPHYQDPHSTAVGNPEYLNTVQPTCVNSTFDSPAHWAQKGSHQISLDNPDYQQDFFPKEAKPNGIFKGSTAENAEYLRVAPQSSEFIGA
Chain of EGFR L858R/T790M/C797S (P00533 25-1210 T790M/C797S/L858R): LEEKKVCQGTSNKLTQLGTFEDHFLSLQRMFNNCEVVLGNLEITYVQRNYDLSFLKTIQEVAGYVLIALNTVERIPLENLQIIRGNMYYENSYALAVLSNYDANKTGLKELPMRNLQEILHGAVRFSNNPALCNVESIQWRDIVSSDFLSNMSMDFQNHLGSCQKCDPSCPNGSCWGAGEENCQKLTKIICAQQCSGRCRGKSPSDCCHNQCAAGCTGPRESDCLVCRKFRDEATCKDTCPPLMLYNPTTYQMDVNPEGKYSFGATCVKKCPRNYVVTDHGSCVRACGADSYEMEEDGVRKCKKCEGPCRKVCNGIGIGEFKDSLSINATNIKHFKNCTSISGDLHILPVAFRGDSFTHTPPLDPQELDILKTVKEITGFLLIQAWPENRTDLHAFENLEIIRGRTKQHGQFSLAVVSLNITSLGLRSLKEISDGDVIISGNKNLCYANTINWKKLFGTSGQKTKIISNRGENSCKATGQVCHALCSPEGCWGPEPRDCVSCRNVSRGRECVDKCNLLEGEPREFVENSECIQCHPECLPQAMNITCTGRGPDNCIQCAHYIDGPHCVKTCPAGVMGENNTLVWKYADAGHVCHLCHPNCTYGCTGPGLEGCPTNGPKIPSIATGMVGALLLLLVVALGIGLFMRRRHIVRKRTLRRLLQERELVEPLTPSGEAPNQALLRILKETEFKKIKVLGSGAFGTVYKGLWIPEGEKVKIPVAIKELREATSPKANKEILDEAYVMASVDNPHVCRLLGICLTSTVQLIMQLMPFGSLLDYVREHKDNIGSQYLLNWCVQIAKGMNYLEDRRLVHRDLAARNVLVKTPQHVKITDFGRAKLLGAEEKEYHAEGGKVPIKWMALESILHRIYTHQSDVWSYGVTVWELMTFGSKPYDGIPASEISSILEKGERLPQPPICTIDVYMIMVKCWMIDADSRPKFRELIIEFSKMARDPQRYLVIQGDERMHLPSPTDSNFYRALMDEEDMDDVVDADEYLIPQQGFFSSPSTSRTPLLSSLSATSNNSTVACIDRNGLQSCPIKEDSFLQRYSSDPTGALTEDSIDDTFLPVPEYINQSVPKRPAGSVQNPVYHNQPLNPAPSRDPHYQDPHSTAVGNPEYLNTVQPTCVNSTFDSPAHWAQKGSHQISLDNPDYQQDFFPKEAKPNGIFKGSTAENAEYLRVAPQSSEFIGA
Chain of EGFR wildtype (WT) (P00533 25-1210): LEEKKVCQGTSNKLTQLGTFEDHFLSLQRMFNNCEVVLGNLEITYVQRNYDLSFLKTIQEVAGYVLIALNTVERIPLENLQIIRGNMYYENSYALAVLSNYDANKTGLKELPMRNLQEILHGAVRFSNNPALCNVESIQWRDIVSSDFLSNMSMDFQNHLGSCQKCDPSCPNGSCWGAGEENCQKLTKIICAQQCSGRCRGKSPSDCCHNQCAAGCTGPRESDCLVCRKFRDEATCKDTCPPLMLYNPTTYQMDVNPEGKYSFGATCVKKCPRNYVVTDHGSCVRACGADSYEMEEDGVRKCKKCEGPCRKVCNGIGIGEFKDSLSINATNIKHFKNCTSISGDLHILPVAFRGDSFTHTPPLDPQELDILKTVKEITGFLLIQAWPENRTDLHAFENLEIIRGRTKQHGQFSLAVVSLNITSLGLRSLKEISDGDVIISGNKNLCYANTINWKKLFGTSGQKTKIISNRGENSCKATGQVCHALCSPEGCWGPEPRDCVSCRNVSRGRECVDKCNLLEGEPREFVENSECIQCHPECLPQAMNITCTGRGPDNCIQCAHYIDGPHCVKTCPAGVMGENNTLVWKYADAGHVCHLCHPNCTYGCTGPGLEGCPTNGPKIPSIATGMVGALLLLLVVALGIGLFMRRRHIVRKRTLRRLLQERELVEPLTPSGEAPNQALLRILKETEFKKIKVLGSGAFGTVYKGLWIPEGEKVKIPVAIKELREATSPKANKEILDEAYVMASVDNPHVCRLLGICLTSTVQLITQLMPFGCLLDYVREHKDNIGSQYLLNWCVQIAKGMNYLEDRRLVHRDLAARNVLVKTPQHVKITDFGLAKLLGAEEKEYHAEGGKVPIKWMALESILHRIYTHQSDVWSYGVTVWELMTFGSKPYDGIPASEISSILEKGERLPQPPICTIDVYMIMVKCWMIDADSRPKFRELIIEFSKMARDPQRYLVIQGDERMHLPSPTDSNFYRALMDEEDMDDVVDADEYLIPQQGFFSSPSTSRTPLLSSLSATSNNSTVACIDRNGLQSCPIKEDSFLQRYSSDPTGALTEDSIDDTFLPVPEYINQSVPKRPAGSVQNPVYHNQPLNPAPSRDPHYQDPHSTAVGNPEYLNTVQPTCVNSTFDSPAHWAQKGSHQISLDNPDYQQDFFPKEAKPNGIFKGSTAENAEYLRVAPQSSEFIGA

Take `Cn1cc(C#Cc2cnc(Nc3ccnc(-c4cnn(S(=O)(=O)C5CC5)c4)n3)cc2N2CCC(C)(CO)CC2)cn1` [Example 12, (1-(2-((2-(1-(Cyclopropylsulfonyl)-1H-pyrazol-4-yl)pyrimidin-4-yl)amino)-5-((1-methyl-1H-pyrazol-4-yl)ethynyl)pyridin-4-yl)-4-methylpiperidin-4-yl)methanol]: the IC50 stood at 1100 nM against EGFR wildtype (WT) (IC50 WT (nM), 100 μM ATP); 6 nM on EGFR wildtype (WT) (Km ATP, read-out: IC50 WT (nM) Km ATP); 0.6 nM against EGFR L858R/T790M/C797S (setting [1]); 0.3 nM at EGFR L858R/T790M/C797S (Km ATP, read-out: IC50 L858R/T790M/C797S (nM) Km ATP); 0.8 nM at EGFR Del19/T790M/C797S (setting [2]); 0.7 nM at EGFR Del19/T790M/C797S (Km ATP, read-out: IC50 Del19/T790M/C797S (nM) Km ATP). Moreover, the IC50 on EGFR L858R/C797S (setting [3]) was 5.1 nM; on EGFR L858R/C797S (Km ATP, read-out: IC50 L858R/C797S (nM) Km ATP), 0.7 nM; against EGFR Del19/C797S (setting [4]), 1.9 nM; at EGFR Del19/C797S (Km ATP, read-out: IC50 Del19/C797S (nM) Km ATP) it was 1.1 nM.

For the compound `O=S(=O)(C1CC1)n1cc(-c2nccc(Nc3cc(NC[C@H]4CC[C@H](O)CC4)c(C#CC4CC5CCC4O5)cn3)n2)cn1` (stereo partly drawn) [Example 423, (1r,4r)-4-(((5-((7-Oxabicyclo[2.2.1]heptan-2-yl)ethynyl)-2-((2-(1-(cyclopropylsulfonyl)-1H-pyrazol-4-yl)pyrimidin-4-yl)amino)pyridin-4-yl)amino)methyl)cyclohexan-1-ol], the IC50 against EGFR wildtype (WT) (IC50 WT (nM), 100 μM ATP) is > 10000 nM; against EGFR L858R/T790M/C797S (setting [1]) it was 3.2 nM; on EGFR Del19/T790M/C797S (setting [2]), 1.2 nM; on EGFR L858R/C797S (setting [3]), 1770 nM; against EGFR Del19/C797S (setting [4]), 105 nM.

As to `O=S(=O)(C1CC1)n1cc(-c2nccc(Nc3cc(N4CCC(C5(O)CC5)CC4)c(C#Cc4cnn(C(F)(F)F)c4)cn3)n2)cn1` [Example 330, 1-(1-(2-((2-(1-(Cyclopropylsulfonyl)-1H-pyrazol-4-yl)pyrimidin-4-yl)amino)-5-((1-(trifluoromethyl)-1H-pyrazol-4-yl)ethynyl)pyridin-4-yl)piperidin-4-yl)cyclopropan-1-ol], the IC50 on EGFR wildtype (WT) (setting [5]) is 272 nM; at EGFR wildtype (WT) (IC50 WT (nM), 100 μM ATP), > 10000 nM; at EGFR L858R/T790M/C797S (setting [6]), 2.2 nM; against EGFR L858R/T790M/C797S (setting [1]), 6.2 nM; at EGFR Del19/T790M/C797S (setting [7]), 1.9 nM; on EGFR Del19/T790M/C797S (setting [2]), 5.2 nM. The IC50 was 17.6 nM at EGFR L858R/C797S (setting [8]), 45.5 nM against EGFR L858R/C797S (setting [3]), 55.5 nM at EGFR Del19/C797S (setting [9]) and 771 nM on EGFR Del19/C797S (setting [4]).

For the compound `O=S(=O)(C1CC1)n1cc(-c2nccc(Nc3cc(N4C[C@H]5C[C@@]5(CO)C4)c(C#Cc4cnn(C(F)(F)F)c4)cn3)n2)cn1` [Example 333, ((1 S,5S)-3-(2-((2-(1-(Cyclopropylsulfonyl)-1H-pyrazol-4-yl)pyrimidin-4-yl)amino)-5-((1-(trifluoromethyl)-1H-pyrazol-4-yl)ethynyl)pyridin-4-yl)-3-azabicyclo[3.1.0]hexan-1-yl)methanol], the IC50 was > 10000 nM against EGFR wildtype (WT) (IC50 WT (nM), 100 μM ATP); 240 nM at EGFR wildtype (WT) (Km ATP, read-out: IC50 WT (nM), Km ATP); 13 nM at EGFR L858R/T790M/C797S (setting [1]); 3.5 nM on EGFR L858R/T790M/C797S (Km ATP, read-out: IC50 L858R/T790M/C797S (nM), Km ATP); 17.8 nM on EGFR Del19/T790M/C797S (setting [2]); 6.8 nM at EGFR Del19/T790M/C797S (Km ATP, read-out: IC50 Del19/T790M/C797S (nM), Km ATP). Moreover, the IC50 on EGFR L858R/C797S (setting [3]) was > 10000 nM; at EGFR L858R/C797S (Km ATP, read-out: IC50 L858R/C797S (nM), Km ATP) it was 245 nM; on EGFR Del19/C797S (setting [4]), 255 nM; at EGFR Del19/C797S (Km ATP, read-out: IC50 Del19/C797S (nM), Km ATP), 133 nM.

In the case of `CN(C)CC1(C)CCN(c2cc(Nc3ccnc(-c4cnn(S(=O)(=O)C5CC5)c4)n3)ncc2C#Cc2cnn(C)c2)CC1` [Example 296, 2-(1-(Cyclopropylsulfonyl)-1H-pyrazol-4-yl)-N-(4-(4-((dimethylamino)methyl)-4-methylpiperidin-1-yl)-5-((1-methyl-1H-pyrazol-4-yl)ethynyl)pyridin-2-yl)pyrimidin-4-amine], the IC50 turned out to be 4.4 nM on EGFR wildtype (WT) (setting [5]); 3250 nM at EGFR wildtype (WT) (IC50 WT (nM), 100 μM ATP); 0.1 nM at EGFR L858R/T790M/C797S (setting [6]); 0.3 nM at EGFR L858R/T790M/C797S (setting [1]); 0.1 nM on EGFR Del19/T790M/C797S (setting [7]); 0.1 nM at EGFR Del19/T790M/C797S (setting [2]). The IC50 at EGFR L858R/C797S (setting [8]) worked out at 1.4 nM; on EGFR L858R/C797S (setting [3]), 9 nM; at EGFR Del19/C797S (setting [9]), 0.6 nM; against EGFR Del19/C797S (setting [4]), 0.6 nM.
